Values joined by “and” are separate entries in the source; they are usually repeats but may differ in a detail not shown here. Equal values may be shown once.
Key:
Bilirubin Total = assay: Example 5: postbaseline hepatic laboratory parameter values of clinical interest, Bilirubin Total; assay type: in vivo, human; details: safety population
From the text: This study consisted of a 4-week screening and baseline period and a 12-week double-blind treatment period, which was followed by a 4-week safety follow-up period. Total study duration is 20-weeks.
To be randomized, eligible patients had to be 18 to 75 years of age (inclusive), have a history of migraine with or without aura for at least 1 year consistent with a diagnosis according to the International Classification of Headache Disorders criteria, 3rd edition, beta version, have experienced 4 to 14 migraine/probable migraine headache days and <15 headache days in the 28-day baseline period. Patients who had clinically significant hematologic, endocrine, cardiovascular, cerebrovascular, pulmonary, renal, hepatic, gastrointestinal, or neurologic disease were excluded from the study.
A total of 834 patients were randomized to double-blind treatment (ITT population), and 825 patients took at least 1 dose of double-blind IP (safety population). […] The primary efficacy variable was the change from baseline in mean monthly migraine/probable migraine headache days across the 12-week treatment period. The secondary efficacy variables were the change from baseline in mean monthly headache days across the 12-week treatment period, proportion of patients with at least a 50% reduction in mean monthly migraine/probable migraine headache days across the 12-week treatment period, and the change from baseline in mean monthly acute medication use days across the 12-week treatment period.

[1] = tested on: participants with episodic migraine; assay: Study A: Patient Global Impression of Change (PGI-C) and satisfaction with study medication; assay type: in vivo, human; details: for PGI-C responders (“much better” or “very much better”), percentage / Satisfaction with study medication (“satisfied” or “extremely satisfied”), percentage: Week 12, mITT; for PGI-C response, OR (95% CI) vs placebo / Satisfaction with study medication, OR (95% CI) vs placebo: week 12
From the text: Additional prespecified responder analyses included the Patient Global Impression of Change (PGI-C), defined as “much better” or “very much better” at week 12, and satisfaction with study medication, defined as “satisfied” or “extremely satisfied” at weeks 4, 8, and 12.

[2] = week 12, range across atogepant groups

`C[C@@H]1[C@H](c2c(F)ccc(F)c2F)C[C@H](NC(=O)c2cnc3c(c2)C[C@@]2(C3)C(=O)Nc3ncccc32)C(=O)N1CC(F)(F)F` [atogepant] was tested, and the “Participants with postbaseline Bilirubin Total (umol/L) >=1 * ULN, (%)” value (from here on “Participants … (umol/L) >=1 * ULN, (%)”) (Bilirubin Total; Atogepant 10 mg QD (N = 93)) was “(3.3) %”, the “Participants with postbaseline Bilirubin Total (umol/L) >=1 * ULN, n/N1” value (“Participants … (umol/L) >=1 * ULN, n/N1” for short) (Bilirubin Total; Atogepant 10 mg QD (N = 93)) was 3/92 and the “Participants with postbaseline Bilirubin Total (umol/L) >=1.5 * ULN, (%)” value (from here on “Participants … (umol/L) >=1.5 * ULN, (%)”) (Bilirubin Total; Atogepant 10 mg QD (N = 93)) was “(1.1) %”. The “Participants with postbaseline Bilirubin Total (umol/L) >=1.5 * ULN, n/N1” value (“Participants … (umol/L) >=1.5 * ULN, n/N1” below) (Bilirubin Total; Atogepant 10 mg QD (N = 93)) was 1/92, the “Participants with postbaseline Bilirubin Total (umol/L) >=2 * ULN, n/N1” value (shortened to “Participants … (umol/L) >=2 * ULN, n/N1”) (Bilirubin Total; Atogepant 10 mg QD (N = 93)) was 0 and the “Participants with postbaseline Bilirubin Total (umol/L) >=3 * ULN, n/N1” value (shortened to “Participants … (umol/L) >=3 * ULN, n/N1”) (Bilirubin Total; Atogepant 10 mg QD (N = 93)) was 0. For the same compound, the “Participants with postbaseline Bilirubin Total (umol/L) >=5 * ULN, n/N1” value (shortened to “Participants … (umol/L) >=5 * ULN, n/N1”) (Bilirubin Total; Atogepant 10 mg QD (N = 93)) was 0, the “Participants with postbaseline Bilirubin Total (umol/L) >=10 * ULN, n/N1” value (shortened to “Participants … (umol/L) >=10 * ULN, n/N1”) (Bilirubin Total; Atogepant 10 mg QD (N = 93)) was 0 and the “Participants with postbaseline Bilirubin Total (umol/L) >=20 * ULN, n/N1” value (“Participants … (umol/L) >=20 * ULN, n/N1” below) (Bilirubin Total; Atogepant 10 mg QD (N = 93)) was 0. The “Participants … (umol/L) >=1 * ULN, (%)” value (Bilirubin Total; Atogepant 30 mg BID (N = 86)) was “(3.6) %”, the “Participants … (umol/L) >=1 * ULN, n/N1” value (Bilirubin Total; Atogepant 30 mg BID (N = 86)) was 3/84 and the “Participants … (umol/L) >=1.5 * ULN, (%)” value (Bilirubin Total; Atogepant 30 mg BID (N = 86)) was “(1.2) %”. The “Participants … (umol/L) >=1.5 * ULN, n/N1” value (Bilirubin Total; Atogepant 30 mg BID (N = 86)) was 1/84, the “Participants … (umol/L) >=2 * ULN, n/N1” value (Bilirubin Total; Atogepant 30 mg BID (N = 86)) was 0 and the “Participants … (umol/L) >=3 * ULN, n/N1” value (Bilirubin Total; Atogepant 30 mg BID (N = 86)) was 0. For the same compound, the “Participants … (umol/L) >=5 * ULN, n/N1” value (Bilirubin Total; Atogepant 30 mg BID (N = 86)) was 0, the “Participants … (umol/L) >=10 * ULN, n/N1” value (Bilirubin Total; Atogepant 30 mg BID (N = 86)) was 0 and the “Participants … (umol/L) >=20 * ULN, n/N1” value (Bilirubin Total; Atogepant 30 mg BID (N = 86)) was 0. The “Participants … (umol/L) >=1 * ULN, (%)” value (Bilirubin Total; Atogepant 30 mg QD (N = 183)) was “(8.4) %”, the “Participants … (umol/L) >=1 * ULN, n/N1” value (Bilirubin Total; Atogepant 30 mg QD (N = 183)) was 15/179 and the “Participants … (umol/L) >=1.5 * ULN, (%)” value (Bilirubin Total; Atogepant 30 mg QD (N = 183)) was “(1.1) %”. The “Participants … (umol/L) >=1.5 * ULN, n/N1” value (Bilirubin Total; Atogepant 30 mg QD (N = 183)) was 2/179, the “Participants … (umol/L) >=2 * ULN, n/N1” value (Bilirubin Total; Atogepant 30 mg QD (N = 183)) was 0 and the “Participants … (umol/L) >=3 * ULN, n/N1” value (Bilirubin Total; Atogepant 30 mg QD (N = 183)) was 0. For the same compound, the “Participants … (umol/L) >=5 * ULN, n/N1” value (Bilirubin Total; Atogepant 30 mg QD (N = 183)) was 0, the “Participants … (umol/L) >=10 * ULN, n/N1” value (Bilirubin Total; Atogepant 30 mg QD (N = 183)) was 0 and the “Participants … (umol/L) >=20 * ULN, n/N1” value (Bilirubin Total; Atogepant 30 mg QD (N = 183)) was 0. The “Participants … (umol/L) >=1 * ULN, (%)” value (Bilirubin Total; Atogepant 60 mg BID (N = 91)) was “(1.1) %”, the “Participants … (umol/L) >=1 * ULN, n/N1” value (Bilirubin Total; Atogepant 60 mg BID (N = 91)) was 1/88 and the “Participants … (umol/L) >=1.5 * ULN, n/N1” value (Bilirubin Total; Atogepant 60 mg BID (N = 91)) was 0. For the same compound, the “Participants … (umol/L) >=2 * ULN, n/N1” value (Bilirubin Total; Atogepant 60 mg BID (N = 91)) was 0, the “Participants … (umol/L) >=3 * ULN, n/N1” value (Bilirubin Total; Atogepant 60 mg BID (N = 91)) was 0 and the “Participants … (umol/L) >=5 * ULN, n/N1” value (Bilirubin Total; Atogepant 60 mg BID (N = 91)) was 0. The “Participants … (umol/L) >=10 * ULN, n/N1” value (Bilirubin Total; Atogepant 60 mg BID (N = 91)) was 0, the “Participants … (umol/L) >=20 * ULN, n/N1” value (Bilirubin Total; Atogepant 60 mg BID (N = 91)) was 0 and the “Participants … (umol/L) >=1 * ULN, (%)” value (Bilirubin Total; Atogepant 60 mg QD (N = 186)) was “(4.4) %”. For the same compound, the “Participants … (umol/L) >=1 * ULN, n/N1” value (Bilirubin Total; Atogepant 60 mg QD (N = 186)) was 8/181, the “Participants … (umol/L) >=1.5 * ULN, (%)” value (Bilirubin Total; Atogepant 60 mg QD (N = 186)) was “(1.1) %” and the “Participants … (umol/L) >=1.5 * ULN, n/N1” value (Bilirubin Total; Atogepant 60 mg QD (N = 186)) was 2/181. For the same compound, the “Participants … (umol/L) >=2 * ULN, n/N1” value (Bilirubin Total; Atogepant 60 mg QD (N = 186)) was 0, the “Participants … (umol/L) >=3 * ULN, n/N1” value (Bilirubin Total; Atogepant 60 mg QD (N = 186)) was 0 and the “Participants … (umol/L) >=5 * ULN, n/N1” value (Bilirubin Total; Atogepant 60 mg QD (N = 186)) was 0. For the same compound, the “Participants … (umol/L) >=10 * ULN, n/N1” value (Bilirubin Total; Atogepant 60 mg QD (N = 186)) was 0, the “Participants … (umol/L) >=20 * ULN, n/N1” value (Bilirubin Total; Atogepant 60 mg QD (N = 186)) was 0 and the “PGI-C responders (“much better” or “very much better”), percentage” value (from here on “PGI-C responders … percentage”) ([1]; 10 mg) was 72.1%. The “Satisfaction with study medication (“satisfied” or “extremely satisfied”), percentage” value (“Satisfaction with study medication … percentage” below) ([1]; 10 mg) was 77.7%, the “PGI-C response, OR (95% CI) vs placebo” value ([1]; 10 mg) was 3.05 and the “Satisfaction with study medication, OR (95% CI) vs placebo” value (shortened to “Satisfaction … (95% CI) vs placebo”) ([1]; 10 mg) was 2.77. The “PGI-C responders … percentage” value ([1]; 30 mg) was 73.2%, the “Satisfaction with study medication … percentage” value ([1]; 30 mg) was 80.3% and the “PGI-C response, OR (95% CI) vs placebo” value ([1]; 30 mg) was 3.33. For the same compound, the “Satisfaction … (95% CI) vs placebo” value ([1]; 30 mg) was 3.44, the “PGI-C responders … percentage” value ([1]; 60 mg) was 76.1% and the “Satisfaction with study medication … percentage” value ([1]; 60 mg) was 82.6%. The “PGI-C response, OR (95% CI) vs placebo” value ([1]; 60 mg) was 3.83, the “Satisfaction … (95% CI) vs placebo” value ([1]; 60 mg) was 3.58 and the “odds of achieving PGI-C response, times that of placebo” value ([1]; each atogepant group) was ≥ 3 times. The “odds for being treatment satisfaction responders, times greater than placebo” value ([1]; week 12, atogepant groups) was 2-4 times, the “proportion of patients satisfied with treatment” value [1, 2] was 78%-83% and the “proportion of patients who were PGI-C responders” value [1, 2] was 72%-76% and 70-80%.
